Measured values published in patent US4900672A, “Method for preservation of nitrile hydration activity” (Nitto Kagaku Kogyo Kabushiki Kaisha, priority 1986, dated 1990).

Tests used:
nitrile hydratase [1] = molecular target: T1, nitrile hydratase (Pseudomonas chlororaphis, UniProt P27763+P27764); assay: Preservation of nitrile hydration activity of enzyme immobilized on DEAE-Cellulofine AM left standing; type: biochemical, Pseudomonas chlororaphis B23 (FERM BP-187); details: Table 8
T1 sequence (P27764 1-200): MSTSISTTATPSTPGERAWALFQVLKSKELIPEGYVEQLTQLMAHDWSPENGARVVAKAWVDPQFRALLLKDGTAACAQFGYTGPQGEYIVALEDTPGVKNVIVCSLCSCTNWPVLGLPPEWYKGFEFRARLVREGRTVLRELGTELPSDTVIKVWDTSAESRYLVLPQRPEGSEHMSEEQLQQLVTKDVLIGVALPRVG
T1 sequence (P27763 1-220): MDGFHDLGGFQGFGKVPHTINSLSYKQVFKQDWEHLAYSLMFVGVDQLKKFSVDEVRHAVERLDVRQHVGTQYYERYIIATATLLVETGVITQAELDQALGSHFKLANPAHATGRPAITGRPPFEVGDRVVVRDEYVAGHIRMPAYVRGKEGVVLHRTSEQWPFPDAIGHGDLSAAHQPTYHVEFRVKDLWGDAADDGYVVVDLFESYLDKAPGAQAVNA
Method: 25 ml each of a cell extract containing ammonium isobutyrate and a control cell extract containing no ammonium isobutyrate prepared as in Example 95 and comparison Example 11 were mixed with 15 g each of DEAE-Cellulofine AM (supplied by Seikagaku Kogyo Co., Ltd., Japan) equilibrated with M/20 phosphate buffer (pH 7.7). The mixture was stirred at 0° C. for 90 minutes to immobilize the enzymes.
The results are presented in Table 8 in which the protein levels in the immobilized enzymes were determined in accordance with the procedure of Lowry et al.

nitrile hydratase [2] = molecular target: T1, nitrile hydratase; assay: Preservation of nitrile hydration activity of polyacrylamide gel-immobilized cells left standing; type: cell-based, Pseudomonas chlororaphis B23 (FERM BP-187); details: Table 7
Method: 40 ml of washed cells (water content 75%) prepared as in Example 1, 4.5 g of acrylamide, 0.5 g of N,N'-methylenebisacrylamide, and 40 ml of M/20 phosphate buffer (containing 10 g/l of ammonium isobutyrate, pH 6.0) were mixed to form a homogeneous suspension. To this suspension were added 5 ml of a 5% aqueous solution of dimethylaminopropionitrile and 10 ml of a 1% aqueous solution of potassium persulfate, and the mixture was maintained at 10° C. for 30 minutes to cause polymerization. A mass of cell-containing gel obtained was crushed into small particles, which were thoroughly washed with M/20 phosphate buffer containing 5 g/l of ammonium isobutyrate, pH 7.0, whereby approximately 90 g of immobilized cells were obtained.
The washed, immobilized cells thus obtained were placed in the same buffer containing 5 g/l of isobutyric acid and left standing at 0° C. for 5 days. […]
The nitrile hydration activity levels of the gel samples were measured as follows before and after the respective immobilized cells were left standing.
1 g of immobilized gel was mixed with 5 g of acrylonitrile and 97 ml of M/20 phosphate buffer (pH 7.7), and the mixture was subjected to reaction at 0° C. for 20 minutes with stirring. The quantities of acrylamide in the respective reaction solutions were determined by gas chromatography.

nitrile hydratase [3] = molecular target: T1, nitrile hydratase; assay: Preservation of nitrile hydration activity of cell extract (crude enzyme solution) left standing; type: biochemical, Pseudomonas chlororaphis B23 (FERM BP-187); details: Table 6
Method: The resultant cell suspension was pressed in a French press (fabricated by Ohtake Seisakusho, Japan) to crush cells under a pressure of 1,000 to 1,500 kg G and then subjected to centrifugation (12,000 rpm, 30 minutes) to remove uncrushed cells and insolubles such as cell walls, whereby a cell extract, i.e. a crude enzyme solution, was obtained.
For comparison purposes, a similar cell suspension (3.2×10^3 U/ml) which contained no ammonium isobutyrate was prepared and subjected to a French press treatment and centrifugation under similar conditions, whereby a control cell extract was obtained.

For `CC(C)C(=O)O.N` [Ammonium Isobutyrate, ammonium isobutyrate], the “Activity Before Being Left Standing” value (nitrile hydratase [1]; enzyme immobilized on DEAE-Cellulofine AM, control without: 4.6) was 19.4, the “Activity After Being Left Standing” value (nitrile hydratase [1]; immobilized enzyme, 3 days ice-cooled, control without: 1.7) was 18.4 and the “% Residual Activity” value (nitrile hydratase [1]; immobilized enzyme, 3 days ice-cooled, control without: 37) was 95%. For the same compound, the “Quant. of AA produced (%) after cells were left standing” value (nitrile hydratase [2]; immobilized cells left standing at 0° C. for 5 days in buffer with 5 g/l stabilizer, control without: 0.52) was 0.93%, the “Quant. of AA produced (%) before cells were left standing” value (nitrile hydratase [2]; immobilized cells, 1 g gel + 5 g acrylonitrile, 0° C., 20 minutes, control without: 0.88) was 1.02% and the “Activity Before Being Left Standing” value (nitrile hydratase [3]; cell extract from suspension mixed 1:1 with buffer (pH 6.5) containing 10 g/l ammonium isobutyrate, control without: 2.7 × 10^3) was 2.9 × 10^3 U/ml. The “Activity After Being Left Standing” value (nitrile hydratase [3]; cell extract, 3 days ice-cooled, control without: 1.0 × 10^3) was 2.8 × 10^3 U/ml and the “% Residual Activity” value (nitrile hydratase [3]; cell extract, 3 days ice-cooled, control without: 38) was 94%.
